Assays:
Assay in all cases: relative viability (nuclei count vs DMSO), 5 days (fraction); higher = more cells survive
Kobe2602 + Decitabine = compound: C1=CC(=CC=C1NC(=S)NNC2=C(C=C(C=C2[N+](=O)[O-])C(F)(F)F)[N+](=O)[O-])F [Kobe2602] + Nc1ncn([C@H]2C[C@H](O)[C@@H](CO)O2)c(=O)n1 [Decitabine] (partner 2 µM)
Summary of the method: (§1)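 Lung cancer cell lines in 1536-well plates were dosed by pin tool the day after seeding, either with one drug alone or with a fixed anchor-drug dose plus five library-drug doses (not always all listed) in √10 steps. After 5 days, cells were fixed and their nuclei stained in one step (final 0.05% Triton X-100, 1% formaldehyde, 1 ug/ml Hoechst), then counted on 4× images. Relative viability is the nuclei count in treated wells divided by that in vehicle wells. Values are medians of duplicate plates.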

Cabozantinib + Olaparib = compound: COc1cc2nccc(Oc3ccc(NC(=O)C4(C(=O)Nc5ccc(F)cc5)CC4)cc3)c2cc1OC [Cabozantinib] + O=C(c1cc(Cc2n[nH]c(=O)c3ccccc23)ccc1F)N1CCN(C(=O)C2CC2)CC1 [Olaparib] (partner 8 µM)
Summary of the method: as §1

Zosuquidar + Crizotinib = compound: O[C@@H](COc1cccc2ncccc12)CN1CCN([C@@H]2c3ccccc3[C@@H]3[C@H](c4ccccc42)C3(F)F)CC1 [Zosuquidar] + C[C@@H](Oc1cc(-c2cnn(C3CCNCC3)c2)cnc1N)c1c(Cl)ccc(F)c1Cl [Crizotinib] (partner 1 µM)
Summary of the method: as §1

Zosuquidar + Linsitinib = compound: O[C@@H](COc1cccc2ncccc12)CN1CCN([C@@H]2c3ccccc3[C@@H]3[C@H](c4ccccc42)C3(F)F)CC1 [Zosuquidar] + C[C@]1(O)C[C@@H](c2nc(-c3ccc4ccc(-c5ccccc5)nc4c3)c3c(N)nccn32)C1 [Linsitinib] (partner 1 µM)
Summary of the method: as §1

Row | Cell Line | relative viability (Kobe2602 + Decitabine; first compound 0.2 µM) | relative viability (Kobe2602 + Decitabine; first compound 0.6325 µM) | relative viability (Kobe2602 + Decitabine; first compound 2 µM) | relative viability (Kobe2602 + Decitabine; first compound 6.325 µM) | relative viability (Kobe2602 + Decitabine; first compound 20 µM) | relative viability (Cabozantinib + Olaparib; first compound 0.02 µM) | relative viability (Cabozantinib + Olaparib; first compound 0.06325 µM) | relative viability (Cabozantinib + Olaparib; first compound 0.2 µM) | relative viability (Cabozantinib + Olaparib; first compound 0.6325 µM) | relative viability (Cabozantinib + Olaparib; first compound 2 µM) | relative viability (Zosuquidar + Crizotinib; first compound 0.01 µM) | relative viability (Zosuquidar + Crizotinib; first compound 0.03162 µM) | relative viability (Zosuquidar + Crizotinib; first compound 0.1 µM) | relative viability (Zosuquidar + Crizotinib; first compound 0.3162 µM) | relative viability (Zosuquidar + Crizotinib; first compound 1 µM) | relative viability (Zosuquidar + Linsitinib; first compound 0.01 µM) | relative viability (Zosuquidar + Linsitinib; first compound 0.03162 µM) | relative viability (Zosuquidar + Linsitinib; first compound 0.1 µM) | relative viability (Zosuquidar + Linsitinib; first compound 0.3162 µM) | relative viability (Zosuquidar + Linsitinib; first compound 1 µM)
1 | NCI-H1355 | 0.312 | 0.368 | 0.301 | 0.346 | 0.358 | 0.748 | 0.747 | 0.775 | 0.771 | 0.714 | 1.05 | 0.997 | 0.987 | 1.15 | 1.05 | 0.864 | 0.798 | 0.641 | 0.87 | 0.887
2 | NCI-H1437 | 0.578 | 0.495 | 0.611 | 0.559 | 0.491 | 0.656 | 0.633 | 0.655 | 0.615 | 0.607 | 0.868 | 0.994 | 0.92 | 0.911 | 0.897 | 1.06 | 1.01 | 0.936 | 1.08 | 1.05
3 | NCI-H1651 | 0.588 | 0.481 | 0.71 | 0.578 | 0.936 | 0.176 | 0.196 | 0.202 | 0.184 | 0.192 | 0.849 | 0.965 | 0.854 | 0.869 | 0.87 | 0.937 | 1.01 | 0.895 | 0.939 | 0.953
4 | NCI-H1666 | 0.725 | 0.693 | 0.69 | 0.724 | 0.812 | 0.821 | 0.802 | 0.719 | 0.715 | 0.732 | 1.02 | 0.975 | 1.18 | 0.986 | 1.08 | 0.759 | 0.832 | 0.768 | 0.817 | 0.78
5 | NCI-H1734 | 0.49 | 0.539 | 0.497 | 0.48 | 0.481 | 0.67 | 0.646 | 0.711 | 0.635 | 0.584 | 0.64 | 0.566 | 0.662 | 0.72 | 0.705 | 0.894 | 0.97 | 0.816 | 0.963 | 0.949
6 | NCI-H1755 | 0.711 | 0.692 | 0.738 | 0.698 | 0.764 | 0.868 | 0.898 | 0.872 | 0.785 | 0.79 | 0.859 | 0.924 | 0.839 | 0.881 | 0.876 | 0.948 | 0.977 | 0.958 | 1.01 | 0.965
7 | NCI-H1792 | 0.489 | 0.512 | 0.461 | 0.472 | 0.526 | – | 0.56 | 0.419 | 0.317 | 0.373 | 0.912 | 0.771 | 0.776 | 0.954 | 0.977 | 0.545 | 0.438 | 0.431 | 0.572 | 0.579
8 | NCI-H1915 | 0.247 | 0.263 | 0.256 | 0.265 | 0.269 | 0.296 | 0.28 | 0.283 | 0.239 | 0.255 | 0.868 | 0.938 | 0.887 | 0.882 | 0.909 | 1.14 | 1.07 | 1.09 | 1.12 | 1.1
9 | NCI-H1944 | 0.502 | 0.452 | 0.46 | 0.439 | 0.48 | 0.426 | 0.413 | 0.404 | 0.401 | 0.52 | 1.03 | 1.09 | 1.03 | 1.04 | 1.12 | 1.21 | 1.17 | 1.08 | 1.09 | 1.17
10 | NCI-H1975 | 0.402 | 0.427 | 0.419 | 0.379 | 0.4 | 0.881 | 0.916 | 0.892 | 0.786 | 0.679 | 0.923 | 0.941 | 1.01 | 0.924 | 1.09 | 0.928 | 0.905 | 1.07 | 1.01 | 1.02
11 | NCI-H1993 | 0.598 | 0.583 | 0.537 | 0.535 | 0.593 | 1.03 | 0.975 | 0.75 | 0.785 | 0.981 | 0.864 | 0.859 | 0.789 | 1.01 | 0.881 | 0.707 | 0.783 | 0.698 | 0.695 | 0.706
12 | NCI-H2009 | 0.358 | 0.414 | 0.405 | 0.394 | 0.372 | 0.718 | 0.71 | 0.703 | 0.712 | 0.762 | 1.02 | 1.01 | 1.05 | 1.06 | 1.01 | 1.22 | 1.25 | 1.15 | 1.16 | 1.2
13 | NCI-H2023 | 0.232 | 0.218 | 0.207 | 0.199 | 0.196 | 0.483 | 0.545 | 0.383 | 0.429 | 0.433 | 0.593 | 0.679 | 0.743 | 0.741 | 0.606 | 0.656 | 0.815 | 0.605 | 0.631 | 0.776
14 | NCI-H2085 | 0.549 | 0.549 | 0.568 | 0.552 | 0.616 | 0.842 | 0.805 | 0.786 | 0.781 | 0.776 | 0.822 | 0.823 | 0.899 | 0.792 | 0.874 | 0.867 | 0.982 | 0.919 | 0.901 | 0.995
15 | NCI-H2087 | 0.313 | 0.271 | 0.27 | 0.281 | 0.309 | 0.702 | 0.643 | 0.622 | 0.523 | 0.605 | 0.839 | 1.05 | 0.817 | 0.915 | 0.836 | 0.916 | 1.03 | 1.01 | 0.987 | 0.89
16 | NCI-H2126 | 0.675 | 0.576 | 0.551 | 0.619 | 0.577 | 0.937 | 0.932 | 0.865 | 0.938 | 0.946 | 0.92 | 0.987 | 0.911 | 1.04 | 1.07 | 0.71 | 0.707 | 0.543 | 0.755 | 0.719
